# Reference: US10039764B2, “Treatment and diagnosis of cancer and precancerous conditions using PDE10A inhibitors and methods to measure PDE10A expression” (University of South Alabama, priority 2013, dated 2018)
# Where two headings read alike, the source gives them in different places.
# Key:
# [1] = test system: HCT116 human colon tumor cells; test: Growth assay (Cell Titer Glo), HCT116; type: cell-based; details: Homo sapiens, HCT-116
# Text: (§1) All cell lines comprising the NCI-60 cancer cell panel were obtained from the NCI Developmental Therapeutics Program and maintained under the same standard conditions. The human normal colonocyte (NCM460) cell line was purchased from Incell (San Antonio, Tex.) and grown according to the manufacturer's specifications. The human colon adenoma cell line, LT97, was a gift from Dr. Brigitte Marian (Medical University Vienna, Austria) and grown according to the provider's specifications. Human mammary epithelial cells (HMEC) were purchased from Lonzo and grown using culture conditions as recommended by the supplier.
# (§2) Ninety-six (96)-well microtiter plates were seeded at a density of 5,000 cells per well. For drug treatment, cells were treated with compounds or vehicle control, and incubated at 37° C. for 72 hours. For siRNA assays, cells were transfected with siRNA under the same conditions described above. The effect of treatment with inhibitors or siRNA knockdown of PDE10A on growth was measured using the Cell Titer Glo Assay (Promega), which measures viable cell number based on ATP content.
# (§3) Effect of various PDE isozyme inhibitors on the growth of human colon tumor cells HCT116 and HT29 was determined using the Cell Titer Glo Cell Viability Assay (Promega) following 72 hours of treatment.
# (§4) The effect of the inhibitors on the growth of human colon tumor and normal colonocytes was measured using the Cell Titer Glo Cell Viability Assay (Promega) as described above. The inhibitory potency toward purified recombinant phosphodiesterase enzymes was measured using the IMAP Phosphodiesterase Assay as described in the Materials and Methods section.
# [2] = biological target: T1, PDE5A (Homo sapiens, UniProt O76074); test: IMAP fluorescence polarization PDE assay, PDE5A; type: biochemical; details: substrate cGMP; read-out: Phosphodiesterase Inhibition PDE5A (PDE5) cGMP IC50
# T1 construct: purchased BPS Biosciences
# Procedure: (§5) MY5445 was purchased from EMD Millipore. […] Recombinant PDE enzymes were purchased from BPS Biosciences. DMSO was used as the vehicle for testing effects of all compounds.
# (§6) PDE enzymatic activity was measured using IMAP fluorescence polarization assay (Molecular Devices. Inc.). […] For experiments involving cell extracts, 2×10^5 cells per well were plated on a six-well tissue culture plate 72 hours prior to cell lysis.
# as §4
# [3] = biological target: T2, PDE9A (Homo sapiens, UniProt O76083); test: IMAP fluorescence polarization PDE assay, PDE9A; type: biochemical; details: substrate cGMP; read-out: Phosphodiesterase Inhibition PDE9A cGMP IC50
# T2 construct: purchased BPS Biosciences
# Procedure: as §5, §6, §4
# [4] = test system: HT29 human colon tumor cells; test: Growth assay (Cell Titer Glo), HT29; type: cell-based; details: Homo sapiens, HT-29
# Text: as §1, §2, §3, §4
# [5] = biological target: T3, PDE11A (Homo sapiens, UniProt Q9HCR9); test: IMAP fluorescence polarization PDE assay, PDE11A; type: biochemical
# T3 construct: purchased BPS Biosciences
# T3 sequence (Q9HCR9 whole entry): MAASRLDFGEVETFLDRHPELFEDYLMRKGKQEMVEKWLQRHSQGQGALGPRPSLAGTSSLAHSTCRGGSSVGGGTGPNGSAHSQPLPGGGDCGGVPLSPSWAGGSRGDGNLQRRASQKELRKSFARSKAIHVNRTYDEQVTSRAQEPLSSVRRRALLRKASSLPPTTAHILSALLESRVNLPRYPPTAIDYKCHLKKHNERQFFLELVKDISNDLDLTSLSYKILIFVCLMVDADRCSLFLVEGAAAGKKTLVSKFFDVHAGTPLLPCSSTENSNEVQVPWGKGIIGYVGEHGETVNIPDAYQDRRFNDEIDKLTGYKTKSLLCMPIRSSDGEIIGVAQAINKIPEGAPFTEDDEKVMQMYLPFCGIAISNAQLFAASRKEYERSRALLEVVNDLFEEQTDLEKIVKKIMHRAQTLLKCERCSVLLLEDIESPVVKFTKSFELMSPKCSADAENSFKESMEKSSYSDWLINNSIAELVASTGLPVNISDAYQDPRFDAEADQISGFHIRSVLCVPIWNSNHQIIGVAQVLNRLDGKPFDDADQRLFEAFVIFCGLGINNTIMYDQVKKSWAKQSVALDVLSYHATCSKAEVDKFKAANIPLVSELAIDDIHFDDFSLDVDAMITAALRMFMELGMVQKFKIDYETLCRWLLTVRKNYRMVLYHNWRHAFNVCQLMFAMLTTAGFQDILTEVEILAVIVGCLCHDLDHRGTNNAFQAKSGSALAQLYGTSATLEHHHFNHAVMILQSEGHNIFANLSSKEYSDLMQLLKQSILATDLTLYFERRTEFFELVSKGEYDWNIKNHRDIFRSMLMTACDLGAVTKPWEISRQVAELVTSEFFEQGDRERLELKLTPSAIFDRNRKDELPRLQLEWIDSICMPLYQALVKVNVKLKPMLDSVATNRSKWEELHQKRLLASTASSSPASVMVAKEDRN
# Procedure: as §5, §6, §4
# [6] = biological target: T4, PDE3A (Homo sapiens, UniProt Q14432); test: IMAP fluorescence polarization PDE assay, PDE3A; type: biochemical
# T4 construct: purchased BPS Biosciences
# T4 sequence (Q14432 whole entry): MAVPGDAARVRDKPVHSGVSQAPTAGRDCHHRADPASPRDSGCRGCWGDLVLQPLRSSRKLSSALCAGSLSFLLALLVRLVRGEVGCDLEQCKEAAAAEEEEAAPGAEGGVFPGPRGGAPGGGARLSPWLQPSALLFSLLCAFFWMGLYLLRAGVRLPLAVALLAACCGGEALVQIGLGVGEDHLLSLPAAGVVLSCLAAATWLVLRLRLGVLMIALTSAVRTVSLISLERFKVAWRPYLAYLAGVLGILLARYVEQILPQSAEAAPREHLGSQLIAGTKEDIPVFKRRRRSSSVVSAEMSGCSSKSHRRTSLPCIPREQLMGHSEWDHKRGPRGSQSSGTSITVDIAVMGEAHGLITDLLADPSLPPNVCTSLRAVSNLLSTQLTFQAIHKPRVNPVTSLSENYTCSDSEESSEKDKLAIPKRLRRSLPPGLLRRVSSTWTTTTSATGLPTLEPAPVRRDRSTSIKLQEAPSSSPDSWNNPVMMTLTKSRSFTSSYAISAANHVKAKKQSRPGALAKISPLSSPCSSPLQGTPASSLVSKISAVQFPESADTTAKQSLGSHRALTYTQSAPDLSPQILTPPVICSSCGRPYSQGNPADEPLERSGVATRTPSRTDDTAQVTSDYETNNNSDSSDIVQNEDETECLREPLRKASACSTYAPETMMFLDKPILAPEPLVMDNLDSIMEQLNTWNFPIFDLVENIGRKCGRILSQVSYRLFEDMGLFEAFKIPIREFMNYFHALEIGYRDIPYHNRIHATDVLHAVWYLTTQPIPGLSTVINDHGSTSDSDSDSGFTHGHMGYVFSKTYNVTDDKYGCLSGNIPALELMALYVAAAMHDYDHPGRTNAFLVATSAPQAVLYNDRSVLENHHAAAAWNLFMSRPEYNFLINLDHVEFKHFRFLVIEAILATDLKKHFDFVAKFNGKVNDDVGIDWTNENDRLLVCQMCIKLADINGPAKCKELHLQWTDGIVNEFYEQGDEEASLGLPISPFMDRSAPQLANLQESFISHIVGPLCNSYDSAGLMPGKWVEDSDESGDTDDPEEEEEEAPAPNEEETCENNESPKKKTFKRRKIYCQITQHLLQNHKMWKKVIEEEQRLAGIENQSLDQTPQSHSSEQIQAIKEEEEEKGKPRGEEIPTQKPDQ
# Procedure: as §5, §6, §4
# [7] = biological target: T5, PDE3B (Homo sapiens, UniProt Q13370); test: IMAP fluorescence polarization PDE assay, PDE3B; type: biochemical; details: substrate cGMP; read-out: Phosphodiesterase Inhibition PDE3B cGMP IC50
# T5 construct: purchased BPS Biosciences
# Procedure: as §5, §6, §4
# [8] = biological target: T6, PDE4B (Homo sapiens, UniProt Q07343); test: IMAP fluorescence polarization PDE assay, PDE4B; type: biochemical; details: substrate cAMP; read-out: Phosphodiesterase Inhibition PDE4B cAMP IC50
# T6 construct: purchased BPS Biosciences
# T6 sequence (Q07343 whole entry): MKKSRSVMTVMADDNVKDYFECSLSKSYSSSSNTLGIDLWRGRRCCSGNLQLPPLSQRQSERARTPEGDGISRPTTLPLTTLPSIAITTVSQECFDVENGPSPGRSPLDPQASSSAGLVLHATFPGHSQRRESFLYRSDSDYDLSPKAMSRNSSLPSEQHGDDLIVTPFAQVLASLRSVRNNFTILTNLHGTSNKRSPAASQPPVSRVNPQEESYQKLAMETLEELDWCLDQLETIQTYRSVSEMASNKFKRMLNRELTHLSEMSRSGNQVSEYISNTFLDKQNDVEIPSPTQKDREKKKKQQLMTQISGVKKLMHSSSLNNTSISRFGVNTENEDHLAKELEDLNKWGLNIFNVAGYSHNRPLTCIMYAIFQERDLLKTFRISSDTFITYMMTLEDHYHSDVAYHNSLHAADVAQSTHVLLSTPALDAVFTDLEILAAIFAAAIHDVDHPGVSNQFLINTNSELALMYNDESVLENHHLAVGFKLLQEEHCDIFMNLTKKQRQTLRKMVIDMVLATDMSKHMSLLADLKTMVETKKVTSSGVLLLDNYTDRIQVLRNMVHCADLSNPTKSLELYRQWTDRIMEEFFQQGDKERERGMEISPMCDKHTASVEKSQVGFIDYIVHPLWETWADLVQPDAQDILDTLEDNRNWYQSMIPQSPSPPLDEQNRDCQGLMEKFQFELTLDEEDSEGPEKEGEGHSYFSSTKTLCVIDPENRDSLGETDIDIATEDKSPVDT
# Procedure: as §5, §6, §4
# [9] = biological target: T7, PDE10A (Homo sapiens, UniProt Q9Y233); test: IMAP fluorescence polarization PDE assay, PDE10A; type: biochemical; details: recombinant enzyme
# T7 construct: other: substrate cGMP; recombinant enzyme; other: substrate cAMP
# T7 sequence (Q9Y233 290-1055 limits assumed): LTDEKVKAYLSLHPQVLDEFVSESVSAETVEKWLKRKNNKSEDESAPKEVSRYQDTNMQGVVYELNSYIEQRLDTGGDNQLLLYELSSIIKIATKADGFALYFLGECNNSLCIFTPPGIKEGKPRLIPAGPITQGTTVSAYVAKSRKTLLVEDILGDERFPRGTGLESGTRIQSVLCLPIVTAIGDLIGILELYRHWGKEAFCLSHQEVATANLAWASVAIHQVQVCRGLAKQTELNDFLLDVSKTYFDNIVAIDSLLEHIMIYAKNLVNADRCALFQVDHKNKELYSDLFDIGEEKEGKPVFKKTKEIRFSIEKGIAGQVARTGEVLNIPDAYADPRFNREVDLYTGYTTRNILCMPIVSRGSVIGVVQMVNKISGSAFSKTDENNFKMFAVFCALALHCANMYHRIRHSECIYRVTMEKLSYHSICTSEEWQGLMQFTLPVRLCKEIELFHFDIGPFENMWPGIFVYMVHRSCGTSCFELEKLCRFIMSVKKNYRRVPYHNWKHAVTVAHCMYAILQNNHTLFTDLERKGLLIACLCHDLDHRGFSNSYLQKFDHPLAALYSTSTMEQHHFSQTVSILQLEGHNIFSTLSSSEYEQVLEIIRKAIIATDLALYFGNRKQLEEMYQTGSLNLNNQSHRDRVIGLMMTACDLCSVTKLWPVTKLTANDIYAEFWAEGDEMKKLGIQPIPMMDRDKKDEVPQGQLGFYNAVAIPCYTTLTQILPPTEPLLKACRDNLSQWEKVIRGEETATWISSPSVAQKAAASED
# Procedure: as §5, §6, §4
# [10] = test system: SW480 human colon tumor cells; test: Growth assay (Cell Titer Glo), SW480; type: cell-based
# Text: as §1, §2, §4
# [11] = test system: normal colonocytes (NCM460); test: Growth assay (Cell Titer Glo), normal colonocytes NCM460; type: cell-based, human; details: for IC50: Homo sapiens, NCM460
# Text: as §1, §2, §4
# [12] = biological target: T8, PDE1A (Homo sapiens, UniProt P54750); test: IMAP fluorescence polarization PDE assay, PDE1A; type: biochemical
# T8 construct: purchased BPS Biosciences
# T8 sequence (P54750 whole entry): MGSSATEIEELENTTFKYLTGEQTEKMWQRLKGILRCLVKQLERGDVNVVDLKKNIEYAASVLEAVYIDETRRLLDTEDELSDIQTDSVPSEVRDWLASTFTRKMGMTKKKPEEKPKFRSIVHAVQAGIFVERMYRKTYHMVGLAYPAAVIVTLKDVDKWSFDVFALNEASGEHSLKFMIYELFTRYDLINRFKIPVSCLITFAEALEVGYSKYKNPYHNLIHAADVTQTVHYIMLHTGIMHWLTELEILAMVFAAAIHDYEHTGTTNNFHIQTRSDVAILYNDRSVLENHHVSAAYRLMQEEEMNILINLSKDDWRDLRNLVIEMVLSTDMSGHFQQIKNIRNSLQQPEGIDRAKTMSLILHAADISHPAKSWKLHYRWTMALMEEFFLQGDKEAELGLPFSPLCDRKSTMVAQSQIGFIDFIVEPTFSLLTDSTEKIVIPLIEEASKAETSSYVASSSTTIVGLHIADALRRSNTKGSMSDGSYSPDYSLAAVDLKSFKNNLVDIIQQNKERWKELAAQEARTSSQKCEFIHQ
# Procedure: as §5, §6, §4
# [13] = biological target: T9, PDE2A (Homo sapiens, UniProt O00408); test: IMAP fluorescence polarization PDE assay, PDE2A; type: biochemical
# T9 construct: purchased BPS Biosciences
# T9 sequence (O00408 whole entry): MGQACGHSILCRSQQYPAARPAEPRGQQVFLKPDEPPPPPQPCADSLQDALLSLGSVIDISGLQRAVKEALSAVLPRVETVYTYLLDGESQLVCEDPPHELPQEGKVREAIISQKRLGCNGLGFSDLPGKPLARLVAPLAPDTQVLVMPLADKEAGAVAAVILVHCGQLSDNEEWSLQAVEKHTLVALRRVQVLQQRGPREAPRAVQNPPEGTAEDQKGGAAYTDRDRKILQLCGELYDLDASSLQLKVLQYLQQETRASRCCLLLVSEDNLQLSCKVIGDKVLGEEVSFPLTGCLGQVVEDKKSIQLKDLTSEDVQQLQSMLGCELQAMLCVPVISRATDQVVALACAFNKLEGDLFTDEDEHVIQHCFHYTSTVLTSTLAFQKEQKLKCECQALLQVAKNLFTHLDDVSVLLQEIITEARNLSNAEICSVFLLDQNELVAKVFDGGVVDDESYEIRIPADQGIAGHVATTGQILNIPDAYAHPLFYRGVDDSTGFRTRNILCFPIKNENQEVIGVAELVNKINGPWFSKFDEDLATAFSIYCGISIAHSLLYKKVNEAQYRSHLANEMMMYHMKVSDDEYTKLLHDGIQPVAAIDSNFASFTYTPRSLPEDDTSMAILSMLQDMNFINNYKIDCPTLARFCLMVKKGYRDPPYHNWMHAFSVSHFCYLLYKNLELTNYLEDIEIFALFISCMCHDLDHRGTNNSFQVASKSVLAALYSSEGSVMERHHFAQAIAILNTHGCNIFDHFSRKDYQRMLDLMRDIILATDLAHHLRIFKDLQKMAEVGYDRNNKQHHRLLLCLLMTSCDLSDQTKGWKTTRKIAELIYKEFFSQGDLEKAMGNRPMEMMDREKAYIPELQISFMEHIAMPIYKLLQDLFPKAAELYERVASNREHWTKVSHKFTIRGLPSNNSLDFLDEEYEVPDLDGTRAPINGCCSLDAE
# Procedure: as §5, §6, §4
compound,measurement,setting,value
"COc1cc2ncnc(N3CC[C@@H](Oc4cnc5ccccc5n4)C3)c2cc1OC [PQ-10, (R)-6,7-dimethoxy-4-{3-(quinoxalin-2-yloxy)pyrrolidin-1-yl}quinazoline]",IC50,"[1]; 72 hours of treatment, FIG. 11, read-out: IC50, growth of HCT116 colon tumor cells",0.29 µM
same,IC50,"[1]; PDE10 Inhibitors table, read-out: Growth Inhibition IC50, HCT-116",0.201 µM
same,IC50,[2],1.8 µM
same,IC50,[3],> 200 µM
same,IC50,"[4]; 72 hours of treatment, FIG. 11, read-out: IC50, growth of HT29 colon tumor cells",0.13 µM
same,IC50,"[4]; PDE10 Inhibitors table, read-out: Growth Inhibition IC50, HT-29",0.197 µM
same,IC50,"[5]; substrate cAMP, read-out: Phosphodiesterase Inhibition PDE11A cAMP IC50",30.1 µM
same,IC50,"[5]; substrate cGMP, read-out: Phosphodiesterase Inhibition PDE11A cGMP IC50",13.2 µM
same,IC50,"[6]; substrate cAMP, read-out: Phosphodiesterase Inhibition PDE3A cAMP IC50",0.47 µM
same,IC50,"[6]; substrate cGMP, read-out: Phosphodiesterase Inhibition PDE3A cGMP IC50",0.211 µM
same,IC50,[7],0.273 µM
same,IC50,[8],17.8 µM
same,IC50,"[9]; Phosphodiesterase Inhibition PDE10A cAMP IC50, substrate cAMP",0.00538 µM
same,IC50,"[9]; Phosphodiesterase Inhibition PDE10A cGMP IC50, substrate cGMP",0.00388 µM
same,IC50,"[10]; 72 hours of treatment, FIG. 11C, read-out: IC50, growth of SW-480 colon tumor cells",0.22 µM
same,IC50,"[10]; PDE10 Inhibitors table, read-out: Growth Inhibition IC50, SW-480",0.199 µM
same,IC50,"[11]; 72 hours of treatment, FIG. 11, read-out: IC50, growth of normal colonocytes (NCM460)",8.4 µM
same,IC50,"[11]; PDE10 Inhibitors table, read-out: Growth Inhibition IC50, NCM-460",> 5 µM
same,normal colonocytes (NCM460) less sensitive than colon tumor cell lines,"[11]; NCM460 vs HCT116, SW-480 and HT29",approximately 40 times
same,IC50,"[12]; substrate cAMP, read-out: Phosphodiesterase Inhibition PDE1A cAMP IC50",29.2 µM
same,IC50,"[12]; substrate cGMP, read-out: Phosphodiesterase Inhibition PDE1A cGMP IC50",8.8 µM
same,IC50,"[13]; substrate cAMP, read-out: Phosphodiesterase Inhibition PDE2A cAMP IC50",7 µM
same,IC50,"[13]; substrate cGMP, read-out: Phosphodiesterase Inhibition PDE2A cGMP IC50",3.7 µM
